Patent publication US8586588B2, “Aryl pyridazinone derivatives and their use as H3 receptor ligands” (Cephalon, Inc., priority 2006, dated 2013)
pKi: −log10 of the molar value.

Key:
[1] = target: T1, human H3 receptor (Homo sapiens, UniProt Q9Y5N1); test: Human H3 radioligand binding ([3H]-N-alpha-methylhistamine, CHO cell membranes, SPA); settings: Table B
T1 construct: expressed in transfected cells
How it was run: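 Scintillation proximity format: bead-proximal [3H]-N-alpha-methylhistamine (approximately 1 nM final) bound to human H3 receptor in CHO membranes was counted after 4 h at room temperature, light-protected. Buffer was pH 7.4 Tris/MgCl2/BSA; test compounds spanned 0.01 nM-30 μM; 10 μM clobenpropit set non-specific binding.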

[2] = target: T2, rat histamine H3 receptor (Rattus norvegicus, UniProt Q9QYN8); test: Rat H3 radioligand binding ([3H]-N-alpha-methylhistamine, CHO-A3 cell membranes, SPA); settings: Table B, binding constant as letter class; read-out: rat H3 Ki
T2 construct: encoding the entire 445-amino-acid rat histamine H3 receptor; expressed in transfected cells
T2 sequence (Q9QYN8 whole entry): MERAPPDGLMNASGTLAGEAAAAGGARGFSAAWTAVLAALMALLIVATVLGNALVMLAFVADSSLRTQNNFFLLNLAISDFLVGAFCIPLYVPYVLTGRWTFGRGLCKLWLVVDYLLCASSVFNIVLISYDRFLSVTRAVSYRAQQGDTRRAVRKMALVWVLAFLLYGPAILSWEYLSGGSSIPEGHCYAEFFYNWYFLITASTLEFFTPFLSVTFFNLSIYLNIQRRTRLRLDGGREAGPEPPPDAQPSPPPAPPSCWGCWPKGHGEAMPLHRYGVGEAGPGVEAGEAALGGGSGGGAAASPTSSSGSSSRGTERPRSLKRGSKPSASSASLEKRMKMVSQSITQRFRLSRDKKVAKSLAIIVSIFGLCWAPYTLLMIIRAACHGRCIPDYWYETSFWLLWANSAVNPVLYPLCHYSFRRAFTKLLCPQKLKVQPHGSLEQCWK
How it was run: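 Scintillation proximity displacement of about 1 nM [3H]-N-alpha-methylhistamine, test compound 0.01 nM-30 μM, 4 h, room temperature, in the dark. Receptor source: rat H3 stably transfected into CHO-A3 cells, 10 μg membrane protein, Tris-HCl pH 7.4/MgCl2/BSA buffer. Nonspecific binding defined by 10 μM clobenpropit.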

[3] = binding constant as letter class

T1 sequence (Q9Y5N1 whole entry): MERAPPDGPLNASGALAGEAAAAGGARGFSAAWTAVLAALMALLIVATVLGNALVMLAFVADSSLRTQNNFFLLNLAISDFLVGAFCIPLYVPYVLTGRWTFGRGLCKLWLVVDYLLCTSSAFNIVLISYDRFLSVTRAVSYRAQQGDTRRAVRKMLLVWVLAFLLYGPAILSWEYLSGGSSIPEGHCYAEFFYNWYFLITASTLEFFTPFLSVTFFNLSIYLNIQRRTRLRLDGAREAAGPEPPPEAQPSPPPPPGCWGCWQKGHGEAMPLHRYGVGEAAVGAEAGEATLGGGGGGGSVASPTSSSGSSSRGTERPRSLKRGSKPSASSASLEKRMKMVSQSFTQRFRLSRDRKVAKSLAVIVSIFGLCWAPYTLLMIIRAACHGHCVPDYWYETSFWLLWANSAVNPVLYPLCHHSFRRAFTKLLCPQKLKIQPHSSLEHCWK

Row | SMILES | melting point | pKi [1, 3] | pKi [2] | pKi ([1]; cell prints a number instead of a letter)
1 | C[C@@H]1CCCN1CCCOc1ccc(C2=NNC(=O)CC2(C)C)cc1 [Example 182, 5,5-Dimethyl-6-{4-[3-((R)-2-methyl-pyrrolidin-1-yl)-propoxy]-phenyl}-4,5-dihydro-2H-pyridazin-3-one] | 118 to 121 °C | 7.00 to 10.00 | 7.00 to 10.00 | –
2 | C[C@@H]1CCCN1CCCOc1c(F)cc(-c2ccc(=O)[nH]n2)cc1F [Example 184, 6-{3,5-Difluoro-4-[3-((R)-2-methyl-pyrrolidin-1-yl)-propoxy]-phenyl}-2H-pyridazin-3-one] | 169 to 171 °C | 7.00 to 10.00 | 7.00 to 10.00 | –
3 | C[C@@H]1CCCN1CCCOc1c(Br)cc(-c2ccc(=O)[nH]n2)cc1Br [Example 185, 6-{3,5-Dibromo-4-[3-((R)-2-methyl-pyrrolidin-1-yl)-propoxy]-phenyl}-2H-pyridazin-3-one] | 165 to 167 °C | 7.00 to 10.00 | 7.00 to 10.00 | –
4 | C[C@@H]1CCCN1CCCOc1c(F)cc(C2=NNC(=O)CC2)cc1F [Example 186, 6-{3,5-Difluoro-4-[3-((R)-2-methyl-pyrrolidin-1-yl)-propoxy]-phenyl}-4,5-dihydro-2H-pyridazin-3-one] | 102 to 104 °C | 7.00 to 10.00 | 7.00 to 10.00 | –
5 | O=C1CCC(c2cc(F)c(OC3CCN(C4CCC4)CC3)c(F)c2)=NN1 [Example 187, 6-[4-(1-Cyclobutyl-piperidin-4-yloxy)-3,5-difluoro-phenyl]-4,5-dihydro-2H-pyridazin-3-one] | 162 to 164 °C | 7.00 to 10.00 | 7.00 to 10.00 | –
6 | O=c1ccc(-c2cc(F)c(OC3CCN(C4CCC4)CC3)c(F)c2)n[nH]1 [Example 188, 6-[4-(1-Cyclobutyl-piperidin-4-yloxy)-3,5-difluoro-phenyl]-2H-pyridazin-3-one] | 195 to 197 °C | 7.00 to 10.00 | 7.00 to 10.00 | –
7 | CCC1CC(=O)NN=C1c1ccc(OC2CCN(C3CCC3)CC2)cc1 (stereo not drawn) [Example 192] | 152 to 154 °C | – | 7.00 to 10.00 | 8.40
8 | C[C@@H]1CCCN1CCCOc1ccc(-n2nc(-c3ccccc3)ccc2=O)cc1 [Example 200, 2-{4-[3-((R)-2-Methyl-pyrrolidin-1-yl)-propoxy]-phenyl}-6-phenyl-2H-pyridazin-3-one] | 86 to 89 °C | 7.00 to 10.00 | 7.00 to 10.00 | –
9 | C[C@@H]1CCCN1CCCOc1ccc(-n2ncc3ccccc3c2=O)cc1 [Example 202, 2-{4-[3-((R)-2-Methyl-pyrrolidin-1-yl)-propoxy]-phenyl}-2H-phthalazin-1-one] | 70 to 73 °C | 7.00 to 10.00 | 7.00 to 10.00 | –
10 | C[C@@H]1CCCN1CCCOc1ccc(-n2nc(-c3cccnc3)ccc2=O)cc1 [Example 204, 2-{4-[3-((R)-2-Methyl-pyrrolidin-1-yl)-propoxy]-phenyl}-6-pyridin-3-yl-2H-pyridazin-3-one] | 87 to 90 °C | 7.00 to 10.00 | 7.00 to 10.00 | –
11 | Cc1onc2c(=O)[nH]nc(-c3ccc(OCCCN4CCCCC4)cc3)c12 [Example 207, 3-Methyl-4-[4-(3-piperidin-1-yl-propoxy)-phenyl]-6H-isoxazolo[3,4-d]pyridazin-7-one] | 178 to 179 °C | 7.00 to 10.00 | 7.00 to 10.00 | –
12 | Cc1onc2c(=O)[nH]nc(-c3ccc(OCCCN4CCC[C@H]4C)cc3)c12 [Example 208, 3-Methyl-4-{4-[3-((R)-2-methyl-pyrrolidin-1-yl)-propoxy]-phenyl}-6H-isoxazolo[3,4-d]pyridazin-7-one] | 169 to 170 °C | 7.00 to 10.00 | 7.00 to 10.00 | –
13 | Cc1cc(=O)[nH]nc1-c1ccc(OCCCN2CCC[C@H]2C)cc1 [Example 210, 5-Methyl-6-{4-[3-((R)-2-methyl-pyrrolidin-1-yl)-propoxy]-phenyl}-2H-pyridazin-3-one] | 253 to 255 °C | 7.00 to 10.00 | 7.00 to 10.00 | –
14 | CCc1cc(=O)[nH]nc1-c1ccc(OCCCN2CCC[C@H]2C)cc1 [Example 211, 5-Ethyl-6-{4-[3-((R)-2-methyl-pyrrolidin-1-yl)-propoxy]-phenyl}-2H-pyridazin-3-one] | 272 to 275 °C | 7.00 to 10.00 | 7.00 to 10.00 | –
15 | C[C@@H]1CCCN1CCCOc1ccc(-c2ccc(=O)[nH]n2)c(F)c1 [Example 214, 6-{2-Fluoro-4-[3-((R)-2-methyl-pyrrolidin-1-yl)-propoxy]-phenyl}-2H-pyridazin-3-one] | 220 to 222 °C | 7.00 to 10.00 | 7.00 to 10.00 | –
16 | O=C1CC2CCc3cc(OC4CCN(C5CCC5)CC4)ccc3C2=NN1 (stereo not drawn) [Example 220, 8-(1-Cyclobutyl-piperidin-4-yloxy)-4,4a,5,6-tetrahydro-2H-benzo[h]cinnolin-3-one] | > 300 °C | 7.00 to 10.00 | 7.00 to 10.00 | –
17 | O=c1ccc(-c2ccc(OC3CCN(C4CCC4)CC3)cc2F)n[nH]1 [Example 221, 6-[4-(1-Cyclobutyl-piperidin-4-yloxy)-2-fluoro-phenyl]-2H-pyridazin-3-one] | > 300 °C | 7.00 to 10.00 | 7.00 to 10.00 | –

Row | SMILES | melting point | pKi [1, 3] | pKi [2] | pKi ([1]; cell prints a number instead of a letter)
18 | Cc1cc(=O)[nH]nc1-c1ccc(OC2CCN(C3CCC3)CC2)cc1 [Example 222, 6-[4-(1-Cyclobutyl-piperidin-4-yloxy)-phenyl]-5-methyl-2H-pyridazin-3-one] | > 300 °C | 7.00 to 10.00 | 7.00 to 10.00 | –
19 | COCn1ncc(-c2ccc(OCCCN3CCC[C@H]3C)cc2)cc1=O [Example 224, 2-Methoxymethyl-5-{4-[3-((R)-2-methyl-pyrrolidin-1-yl)-propoxy]-phenyl}-2H-pyridazin-3-one] | 183 to 185 °C | 7.00 to 10.00 | 7.00 to 10.00 | –
20 | C[C@H](COc1ccc(-c2cn[nH]c(=O)c2)cc1)CN1CCCCC1 [Example 227, 5-[4-((S)-2-Methyl-3-piperidin-1-yl-propoxy)-phenyl]-2H-pyridazin-3-one] | 145 to 148 °C | 7.00 to 10.00 | 7.00 to 10.00 | –
21 | C[C@@H](COc1ccc(-c2cn[nH]c(=O)c2)cc1)CN1CCCCC1 [Example 228, 5-[4-((R)-2-Methyl-3-piperidin-1-yl-propoxy)-phenyl]-2H-pyridazin-3-one] | 160 to 163 °C | 7.00 to 10.00 | 6.30 to 7.00 | –
22 | C[C@@H]1CCCN1CCCOc1c(Br)cc(-c2cn[nH]c(=O)c2)cc1Br [Example 229] | 175 to 180 °C | 7.00 to 10.00 | 6.00 to 6.30 | –
23 | Cc1cc(OCCCN2CCCCC2)ccc1-c1cn[nH]c(=O)c1 [Example 233, 5-[2-Methyl-4-(3-piperidin-1-yl-propoxy)-phenyl]-2H-pyridazin-3-one] | 112 to 113 °C | 7.00 to 10.00 | 6.30 to 7.00 | –
24 | O=c1ccc(-c2ccc(OCCCN3CCCC3)cc2)n[nH]1 [Example 240, 6-[4-(3-Pyrrolidin-1-yl-propoxy)-phenyl]-2H-pyridazin-3-one] | 154 to 157 °C | 7.00 to 10.00 | 7.00 to 10.00 | –
25 | CN(CCCOc1ccc(-c2ccc(=O)[nH]n2)cc1)C1CCC1 [Example 241, 6-{4-[3-(Cyclobutyl-methyl-amino)-propoxy]-phenyl}-2H-pyridazin-3-one] | < 50 °C | 6.30 to 7.00 | 6.30 to 7.00 | –
26 | CN(CCCOc1ccc(-c2ccc(=O)[nH]n2)cc1)C1CCCC1 [Example 242, 6-{4-[3-(Cyclopentyl-methyl-amino)-propoxy]-phenyl}-2H-pyridazin-3-one] | 95 to 98 °C | 7.00 to 10.00 | 6.30 to 7.00 | –
27 | O=C1NN=C(c2ccc(OC3CCN(C4CCC4)CC3)cc2)C2CC12 (stereo not drawn) [Example 244, 5-[4-(1-Cyclobutyl-piperidin-4-yloxy)-phenyl]-3,4-diaza-bicyclo[4.1.0]hept-4-en-2-one] | 79 to 81 °C | 7.00 to 10.00 | 7.00 to 10.00 | –
28 | C[C@H](COc1ccc(C2=NNC(=O)C3CC23)cc1)CN1CCC[C@H]1C (stereo partly drawn) [Example 245] | 112 to 115 °C | 7.00 to 10.00 | 7.00 to 10.00 | –
29 | O=c1ccc(-c2ccc(OCC(O)CN3CCCCC3)cc2)n[nH]1 (stereo not drawn) [Example 255, 6-[4-(2-Hydroxy-3-piperidin-1-yl-propoxy)-phenyl]-2H-pyridazin-3-one] | 185 °C | 6.30 to 7.00 | 6.30 to 7.00 | –
30 | C[C@@H]1CCCN1CC(O)COc1ccc(-c2ccc(=O)[nH]n2)cc1 (stereo partly drawn) [Example 256, 6-{4-[2-Hydroxy-3-((R)-2-methyl-pyrrolidin-1-yl)-propoxy]-phenyl}-2H-pyridazin-3-one] | 153 °C | 7.00 to 10.00 | 6.30 to 7.00 | –
31 | C[C@@H]1CCCN1C[C@H](O)COc1ccc(-c2ccc(=O)[nH]n2)cc1 [Example 257, 6-{4-[(S)-2-Hydroxy-3-((R)-2-methyl-pyrrolidin-1-yl)-propoxy]-phenyl}-2H-pyridazin-3-one] | 156 °C | 7.00 to 10.00 | 7.00 to 10.00 | –
32 | C[C@@H]1CCCN1C[C@@H](O)COc1ccc(-c2ccc(=O)[nH]n2)cc1 [Example 258, 6-{4-[(R)-2-Hydroxy-3-((R)-2-methyl-pyrrolidin-1-yl)-propoxy]-phenyl}-2H-pyridazin-3-one] | 147 °C | 7.00 to 10.00 | 7.00 to 10.00 | –
33 | O=c1ccc(-c2ccc(OC[C@H](O)CN3CCCCC3)cc2)n[nH]1 [Example 259, 6-[4-((R)-2-Hydroxy-3-piperidin-1-yl-propoxy)-phenyl]-2H-pyridazin-3-one] | 167 °C | 6.30 to 7.00 | 6.30 to 7.00 | –
